Measured values taken from patent US20230121689A1, “CEPHALOSPORIN ANTIBACTERIAL COMPOUND AND PHARMACEUTICAL APPLICATION THEREOF” (priority 2020, published 2023).
≈ marks a conversion by molar mass, not a printed value. Like-named read-outs stand apart in the source and are kept apart here.

How the values were obtained:
[1] = Test Example 3: pharmacokinetic study in cynomolgus monkeys; assay type: in vivo; conditions: cynomolgus monkey, plasma, 10 mg/kg single intravenous infusion, individual animals
Method: An appropriate amount of a test compound was weighed precisely and added to a container, and 0.9% sodium chloride injection and 0.2 M NaOH solution were added thereto in an ice bath until the test compound was completely dissolved, so that a sample solution at a concentration of 2 mg/mL was obtained followed by storage at 2-8° C. for later use.
Species and strain: cynomolgus monkey Animal grade: general grade Animal source: Guangxi Xiongsen Primate Experimental Animal Breeding Development Co., Ltd. Number of the using of laboratory animal: SYXK (Su) 2019-0012
6 cynomolgus monkeys (half male and half female) were selected and randomly divided into 3 groups with 1 animal/sex in each group. The cynomolgus monkeys were administered with the test sample at a dose of 10 mg/kg by the single intravenous infusion. Blood samples were collected from each group of animals at the following time points: before administration, and 5 min, 15 min, 0.5 h, 1 h, 2 h, 4 h, 6 h, and 8 h after administration. In the test, the concentration of each test compound in the plasma of the cynomolgus monkey was detected by the LC-MS/MS method, and the lower limit of quantification of the analysis methods for the plasma samples were all 1 μg/mL. The plasma concentration data were analyzed by the non-compartmental analysis (NCA) of the analysis software for pharmacokinetic data, WinNonlin, pharmacokinetic parameters were calculated, and pharmacokinetic characteristics of the test compounds in cynomolgus monkeys after administration were investigated, with the results shown in the following table

[2] = system: Control Strain Pseudomonas aeruginosa ATCC 27853; experiment: Test Example 2: antibacterial activity test (MIC); assay type: cell-based; conditions: ATCC27853, ID-CAMHB, ATCC 27853, read-out: ID-CAMHB, MIC
In short: (§1)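 MIC by CLSI broth microdilution: compounds serially 2-fold diluted in sterile saline, 32–0.031 μg/mL (11 points, duplicate wells), added to bacterial suspension at 2-8×10^5 CFU/mL, with drug-free growth controls.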

[3] = system: Control strain Escherichia coli ATCC 25922; experiment: Test Example 2: antibacterial activity test (MIC); assay type: cell-based; conditions: ATCC25922, ID-CAMHB, ATCC 25922, read-out: ID-CAMHB, MIC
In short: as §1

[4] = system: Carbapenem-resistant Enterobacteriaceae (CRE, Klebsiella pneumoniae); experiment: Test Example 2: antibacterial activity test (MIC); assay type: cell-based; conditions: ID-CAMHB, read-out: ID-CAMHB, MIC
In short: as §1

[5] = system: Carbapenem-resistant Acinetobacter baumannii (CRAB, Acinetobacter baumannii); experiment: Test Example 2: antibacterial activity test (MIC); assay type: cell-based; conditions: ID-CAMHB, read-out: ID-CAMHB, MIC
In short: as §1

[6] = system: Carbapenem-resistant Pseudomonas aeruginosa (CRPA, Pseudomonas aeruginosa); experiment: Test Example 2: antibacterial activity test (MIC); assay type: cell-based; conditions: ID-CAMHB, read-out: ID-CAMHB, MIC
In short: as §1

[7] = system: Carbapenem-resistant Pseudomonas aeruginosa (CRPA); experiment: Test Example 1: antibacterial activity test (MIC); assay type: cell-based
Method: (§2) The test compounds were diluted in a gradient and used for an MIC assay on the test strains. The test compounds at an initial assay concentration of 32 μg/mL were diluted in a 2-fold gradient (11 concentration points in total), and two duplicate wells were set for each concentration. Additional wells without drug dosing were set as growth controls. The minimum inhibitory concentration (MIC) assay was performed with reference to the Clinical and Laboratory Standards Institute (CLSI) guidelines.
(§3) After the frozen strains were subcultured, a single colony was picked and re-suspended in normal saline or sterile water in a tube. The bacterial suspension was vortexed and adjusted to 0.5 McF using a spectrophotometer at the wavelength of 530 nm. The bacterial solution was taken by a pipette, added to a culture medium, diluted and mixed well, and seeded to a bacterial assay plate.
(§4) The 96-well plate was affixed with a disposable sealing film, shaken and mixed well, and visually observed using a plate reader. The minimum concentration of the compounds capable of inhibiting the growth of bacteria was defined as MIC as compared to the growth controls.

[8] = system: Carbapenem-resistant Acinetobacter baumannii (CRAB); experiment: Test Example 1: antibacterial activity test (MIC); assay type: cell-based
Method: as §2, §3, §4

[9] = system: Carbapenem-resistant Enterobacteriaceae (CRE); experiment: Test Example 1: antibacterial activity test (MIC); assay type: cell-based
Method: as §2, §3, §4

[10] = both sexes, cynomolgus, iv, 10 mg/kg

CC(C)(O/N=C(\C(=O)N[C@@H]1C(=O)N2C(C(=O)[O-])=C(C[N+]3(CCNC(=O)c4ccc(O)c(O)c4Cl)CCCC3)CS[C@H]12)c1csc(N)n1)C(=O)O [Cefiderocol, reference compound]
AUC(0-inf) [1, 10]: 32400 ng·h/mL | AUC(0-t) [1, 10]: 26200 ng·h/mL | clearance [1, 10]: 5.14 mL/min/kg | half-life [1, 10]: 51.6 min | Cmax ([1]; both sexes, cynomolgus, iv, 10 mg/kg, read-out: Cmax): 30500 ng/mL | MRT ([1]; both sexes, cynomolgus, iv, 10 mg/kg, read-out: MRT): 42 min | Vd ([1]; both sexes, cynomolgus, iv, 10 mg/kg, read-out: Vd): 0.381 L/kg | Tmax ([1]; both sexes): 4.8 min | AUC last ([1]; 10 mg/kg): 23940 ng·h/mL | AUCinf ([1]; 10 mg/kg): 28350 ng·h/mL | CL ([1]; 10 mg/kg): 5.8793 mL/min/kg | Cmax ([1]; 10 mg/kg): 24330 ng/mL | Vd ([1]; 10 mg/kg): 0.37963 L/kg | t1/2 ([1]; 10 mg/kg): 45 min | MIC [2]: 0.0625 µg/mL (≈ 0.0831 µM) | MIC [3]: 0.0625 µg/mL (≈ 0.0831 µM) | MIC ([4]; FDA-CDC AR-BANK #0361 (TEM-1; SHV-12; KPC-2)): 2 µg/mL (≈ 2.66 µM) | MIC ([4]; FDA-CDC AR-BANK #0362 (TEM-1; SHV-11; KPC-2)): 0.5 µg/mL (≈ 0.665 µM) | MIC ([4]; FDA-CDC AR-BANK #0363 (TEM-1; SHV-12; KPC-2)): 0.25 µg/mL (≈ 0.332 µM) | MIC ([4]; FDA-CDC AR-BANK #0438 (aph(3′)-Ia, dfrA12, KPC-3, OmpK35, oqxA, oqxB, SHV-11)): 2 µg/mL (≈ 2.66 µM) | MIC ([4]; FDA-CDC AR-BANK #0453 (KPC-3, OmpK35, oqxA, oqxB, SHV-11, TEM-1B)): 1 µg/mL (≈ 1.33 µM) | MIC ([5]; FDA-CDC AR-BANK #0036 (strB, OXA-65, OXA-24, strA, sul2)): 0.25 µg/mL (≈ 0.332 µM) | MIC ([5]; FDA-CDC AR-BANK #0052 (OXA-58, OXA-100, sul2)): 0.0625 µg/mL (≈ 0.0831 µM) | MIC ([5]; FDA-CDC AR-BANK #0063 (OXA-23, OXA-65, OXA-24, sul2)): 8 µg/mL (≈ 10.6 µM) | MIC ([5]; FDA-CDC AR-BANK #0070 (OXA-58, OXA-100, sul2)): 0.125 µg/mL (≈ 0.166 µM) | MIC ([5]; FDA-CDC AR-BANK #0101 (strB, OXA-65, OXA-24, strA, sul2)): 1 µg/mL (≈ 1.33 µM) | MIC ([6]; FDA-CDC AR-BANK #0439 (aac(6′)-Il, aadA1b, BCR1, IMP-18, OXA-50)): 0.25 µg/mL (≈ 0.332 µM) | MIC ([6]; FDA-CDC AR-BANK #0441 (KPC-2)): 1 µg/mL (≈ 1.33 µM) | MIC ([6]; FDA-CDC AR-BANK #0444 (aac(6′)-Il, dfrB5, OXA-4, tet(G), VIM-2)): 2 µg/mL (≈ 2.66 µM) | MIC ([6]; FDA-CDC AR-BANK #0457 (aadA6, VIM-2)): 0.125 µg/mL (≈ 0.166 µM) | MIC ([7]; CRPA strain No. 100110): 0.047 µg/mL (≈ 0.0625 µM) | MIC ([7]; CRPA strain No. 110163): 1 µg/mL (≈ 1.33 µM) | MIC ([7]; CRPA strain No. 110224): 0.75 µg/mL (≈ 0.997 µM) | MIC ([7]; CRPA strain No. 110358): 1 µg/mL (≈ 1.33 µM) | MIC ([7]; CRPA strain No. 110390): 0.5 µg/mL (≈ 0.665 µM) | MIC ([8]; CRAB strain No. 100085): 0.5 µg/mL (≈ 0.665 µM) | MIC ([8]; CRAB strain No. 100333): 2 µg/mL (≈ 2.66 µM) | MIC ([8]; CRAB strain No. 110440): 1.5 µg/mL (≈ 1.99 µM) | MIC ([8]; CRAB strain No. 110477): 1 µg/mL (≈ 1.33 µM) | MIC ([8]; CRAB strain No. 110517): 0.5 µg/mL (≈ 0.665 µM) | MIC ([9]; CRE strain No. 100109): 1 µg/mL (≈ 1.33 µM) | MIC ([9]; CRE strain No. 100186): 0.5 µg/mL (≈ 0.665 µM) | MIC ([9]; CRE strain No. 110502): 12 µg/mL (≈ 16 µM) | MIC ([9]; CRE strain No. 110525): 6 µg/mL (≈ 7.98 µM) | MIC ([9]; CRE strain No. 311277): 5 µg/mL (≈ 6.65 µM)
